We go through 2 substances from article PMC8707700, “Ru(III) Complexes with Lonidamine-Modified Ligands” (International Journal of Molecular Sciences, 2021).

For data set [1], the target named is T1, isolated rat TrxR1 (rat liver TrxR) (Rattus norvegicus, UniProt O89049).
T1 construct: Commercially available rat liver TrxR; purchased Sigma Aldrich; host or cells: rat liver
T1 sequence (O89049 1-499): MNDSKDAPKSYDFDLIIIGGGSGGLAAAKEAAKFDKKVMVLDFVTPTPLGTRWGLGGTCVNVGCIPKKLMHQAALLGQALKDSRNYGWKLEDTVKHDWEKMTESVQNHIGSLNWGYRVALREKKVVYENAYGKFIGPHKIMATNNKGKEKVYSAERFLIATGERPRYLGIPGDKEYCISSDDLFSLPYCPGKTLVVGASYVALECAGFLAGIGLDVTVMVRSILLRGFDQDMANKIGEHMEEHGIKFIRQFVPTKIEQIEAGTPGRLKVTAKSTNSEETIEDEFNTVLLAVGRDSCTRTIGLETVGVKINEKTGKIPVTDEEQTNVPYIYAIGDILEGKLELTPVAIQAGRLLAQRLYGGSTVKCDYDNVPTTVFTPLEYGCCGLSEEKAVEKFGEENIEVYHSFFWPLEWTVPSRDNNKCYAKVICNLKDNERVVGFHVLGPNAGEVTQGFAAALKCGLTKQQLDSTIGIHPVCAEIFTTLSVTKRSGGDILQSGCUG
Description: Inhibition of purified TrxR (DTNB reduction). The conditions noted are these: isolated enzyme, 75 min 37 °C preincubation; mean ± SD, three measurements. It is filed as biochemical. As to the method: The activity of TrxR [40, 54] was determined in a microplate format. Commercially available rat liver TrxR (Sigma Aldrich, St. Louis, MO, USA) was diluted with distilled water to 3.5 Unit/mL. In total, 25 μL aliquots of this solution were mixed with 25 μL of a potassium phosphate buffer, pH 7.0, with or without tested compounds. Fifty µL of 0.5% v/v dimethyl formamide in buffer was served as a blank. […] For this purpose, 25 µL of the highest test concentration of each compound and 25 µL of phosphate buffer (no enzyme) were mixed. Samples were incubated with moderate shaking for 75 min at 37 °C in a 96-well plate. To each well, 225 μL of the reaction mixture (500 μL of potassium phosphate buffer, pH 7.0, 80 μL of 100 mM ethylenediaminetetraacetic acid (EDTA), 20 μL of 0.2% bovine serum albumin, 100 μL of 20 mM NADPH (nicotinamide adenine dinucleotide phosphate), and 300 μL of water) was added; the reaction was initiated by the addition of 25 μL of 20 mM DTNB (5,5′-dithiobis(2-nitrobenzoic acid)) solution in ethanol. The formation of 5-TNB was monitored at 405 nm 10 times at 35 s intervals by a VICTOR X4 Plate Reader (Perkin Elmer). […] IC50 values were calculated as the concentration of the compound that decreased the enzymatic activity of the control (no compound) by 50%. Values are mean ± SD of the three independent measurements.

In data set [2] the test system is MCF-7 breast carcinoma cells. Description: Cellular ruthenium accumulation by atomic absorption spectrometry. It is filed as cell-based. The conditions noted are these: MCF-7, 20 μM. As to the method:
The cellular accumulation of ruthenium complexes was studied by atomic absorption spectrometry. The MCF-7 breast carcinoma cells were incubated with 16 and 20 for 1–24 h in DMEM with or without fetal bovine serum to reduce the binding of complexes with proteins. The accumulation was dependent on the linker’s length. […] The ruthenium complex entered the cells relatively fast; by 4 h, no notable further increase of the Ru content was observed (Figure 6). […] The negative effect of serum on the cellular Ru accumulation has been reported for other ruthenium species; however, significant effects were detectable only after longer exposure (24 h).
The intracellular accumulation of metal-containing compounds was determined as described. […]
For metal and protein quantification, pellets were resuspended in 250 µL of deionised water and lysed for 30 min with sonication. The protein content in lysates was determined by the Bradford method. […] Drying steps were adjusted, the atomisation temperature was set to 2400 °C, and the reading time was increased to 7 s. Ruthenium was quantified at 349.8945 nm. The mean integrated absorbance of triple injections was used throughout the measurements. Results (average of the two experiments) were expressed as nmol metal/mg protein.

For the next data set, the system named is HCT116 cells. Description: Annexin V/7-AAD flow cytometry (Muse Annexin V & Dead Cell Kit). It is filed as cell-based. The following applies: HCT116, 24 h; for Annexin V-positive cells: 2xIC50 (50 µM of 16, 20 µM of 20); for early apoptosis (Annexin V/7-AAD) / late apoptosis (Annexin V/7-AAD) / live cells (Annexin V/7-AAD) / necrosis (Annexin V/7-AAD): 2xIC50, one representative experiment. How it is done: Mechanisms of cell death, that is, Annexin V/7-AAD reactivity and caspase 3/7 activation, were determined for 16 and 20 in HCT116 cells using the Muse® Annexin V & Dead Cell Kit (Luminex corp., Austin, TX, USA) and flow cytometry. Cells were incubated with 16, 20, or cisplatin (reference drug) for 24 h at concentrations corresponding to 2xIC50 values (obtained in MTT assays; Table 4). The percentages of Annexin V-positive cells in response to 16 and 20 were higher than cisplatin (Figure 8). Complex 20 with the C12 linker induced Annexin V positivity slightly more efficiently than 16 with the C3 linker (27.4 ± 2.1% vs. 19.7 ± 0.6%).
The antiproliferative activity was studied by MTT assays as published previously. For flow cytometry studies, cells were plated into 6-well plates (Eppendorf, Germany; 4 × 10^5 cells in 2 mL of DMEM) and incubated for 24 h. Solutions of complexes in DMSO were prepared immediately prior to the day of the experiments. Cells were treated with either 20 µM of cisplatin, 50 µM of 16, or 20 µM of 20. Concentrations corresponded to two-fold IC50 values based on MTT assays. Cells were incubated for 24 h, pooled, washed with cold PBS, and resuspended in DMEM. Aliquots of cells were processed as recommended in the Muse Annexin V&Dead Cell Kit or Muse Caspase-3/7 Kit (Luminex). Measurements were carried out on a Muse Cell Analyser, Luminex corp., TX, USA.

Take “Na[trans-Ru(DMSO)(C21H19Cl2N5O)Cl4] [Compound 16]”: in data set [1], the IC50 came to 20.4 ± 0.1 µM. In addition, the “cellular Ru accumulation with serum in the culture medium” value in data set [2] (serum present) was “only very low uptake”. Also, in the data set on HCT116 cells, the “Annexin V-positive cells” value was 19.7 ± 0.6%, the “early apoptosis (Annexin V/7-AAD)” value amounted to 3%, the “late apoptosis (Annexin V/7-AAD)” value is 20% and the “live cells (Annexin V/7-AAD)” value is 78%. Also, in the data set with HCT116 cells, the “necrosis (Annexin V/7-AAD)” value came to 0%.
In the case of “Na[trans-Ru(DMSO)(C30H37Cl2N5O)Cl4] [Compound 20]”, 8.5 ± 0.3 µM corresponded to half-maximal inhibition in data set [1] (IC50). The “cellular Ru accumulation” value in data set [2] (1–24 h) was “accumulated more readily than 16”. For the same substance, in the data set on HCT116 cells, the “Annexin V-positive cells” value amounted to 27.4 ± 2.1%, the “early apoptosis (Annexin V/7-AAD)” value turned out to be 5%, the “late apoptosis (Annexin V/7-AAD)” value is 26% and the “live cells (Annexin V/7-AAD)” value is on record as 69%. Moreover, the “necrosis (Annexin V/7-AAD)” value in the data set with HCT116 cells was 0%.
